Assay [1] has as its target human Kv1.5 (Homo sapiens, UniProt P22460). Description: Conventional patch clamp assay of inhibitory activity against Kv1.5. The format is cell-based. The following applies: conventional patch-clamp method; CHO-K1 cells stably expressing human Kv1.5. The protocol: III. Conventional Patch Clamp Assay of Inhibitory Activity Against Kv1.5
The principle and method for the conventional patch clamp method can be found in Grissmer et al. [Grissmer et al. Molecular Pharmacology 1994, 45:1227-1234].
Inhibitory activity of a compounds against Kv1.5 was assessed using a CHO-K1 recombinant cell line stably expressing human Kv1.5 (Charles River, Calif.). The cells were cultured in an F-12K culture medium containing 5% calf serum (Invitrogen, Carlsbad.ca) in an incubator at 37° C. and under air humidity with 6% CO2.
(§1) During the experiment, adherent cells were placed in a recording chamber under an inverted microscope. All the experiments were performed at room temperature. Each of the cells used itself as the control.
(§2) The test compounds were formulated to their final concentrations on the day of assay, and then dissolved in an extracellular fluid. The extracellular fluid (mM) was: NaCl, 137; KCl, 4; CaCl2, 1.8; MgCl2, 1; HEPES, 10; glucose 10; pH 7.4 (NaOH titration). All the solutions of the test compounds and the control compounds contained 0.3% of DMSO.
Each of the compounds was perfused by a gravity-driven perfusion system. At least two cells were tested for each of the concentrations of a compound. After the current was stable, the blocking effect of the compounds was calculated by comparing the change in the current before and after administration of the compounds.
1000 μM 4-AP was used as a positive control.
(§3) The cells were transferred to a perfusion chamber, and were perfused with the extracellular fluid. Intracellular fluid (mM): K-aspartate, 130; MgCl2, 5; EGTA 5; HEPES, 10; pH 7.2 (KOH titration). The intracellular fluid was stored in a small amount in a refrigerator at −80° C. in batches, and was thawed on the day of the experiment. The electrodes were drawn by PC-10 (Narishige, Japan). A whole-cell patch-clamp recording was performed, with the noise being filtered by one-fifth of the sampling frequency.
The cells were clamped at −80 mV and then depolarized to 20 mV with square waves lasting for 2 seconds to obtain a Kv1.5 current. This process was repeated every 20 seconds. The maximum current elicited by the square waves was detected. After the maximum current became stable, the test compounds were perfused. After the reaction was stable, the blocking strength was calculated.
Data was collected and analyzed using pCLAMP 10 (Molecular Devices, Union City, CA). A stable current meant a current which varies within a limited range over time. The value of the stable current was used to calculate the effect of a compound at this […].
For orientation: In patch-clamp work, channel activity is measured electrically.

The target of assay [2] is human Kv1.3 (Homo sapiens, UniProt P22001). Put plainly: Conventional patch clamp assay of inhibitory activity against Kv1.3. Conditions: conventional patch-clamp method; CHO-K1 cells stably expressing human Kv1.3. In kind it is cell-based.
Sequence of human Kv1.3 (P22001 whole entry): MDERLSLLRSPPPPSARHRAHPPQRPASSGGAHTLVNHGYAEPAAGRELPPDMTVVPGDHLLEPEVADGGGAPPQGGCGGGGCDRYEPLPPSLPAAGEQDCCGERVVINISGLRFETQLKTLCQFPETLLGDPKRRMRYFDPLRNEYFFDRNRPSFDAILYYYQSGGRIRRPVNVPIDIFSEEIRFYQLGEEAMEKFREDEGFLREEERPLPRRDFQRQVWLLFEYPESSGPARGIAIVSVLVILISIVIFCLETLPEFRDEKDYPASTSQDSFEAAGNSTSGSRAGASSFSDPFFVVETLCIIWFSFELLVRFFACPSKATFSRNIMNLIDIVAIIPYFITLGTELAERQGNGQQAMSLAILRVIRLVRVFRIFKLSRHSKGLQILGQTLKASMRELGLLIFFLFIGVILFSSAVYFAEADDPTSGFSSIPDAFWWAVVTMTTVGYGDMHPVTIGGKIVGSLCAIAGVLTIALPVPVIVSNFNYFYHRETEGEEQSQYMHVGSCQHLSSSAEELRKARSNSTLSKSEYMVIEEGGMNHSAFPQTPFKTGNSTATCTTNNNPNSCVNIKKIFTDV
From the text: II. Conventional Patch Clamp Assay of Inhibitory Activity Against Kv1.3
In order to compare the influence of different assay methods on the inhibitory activity of a compound, the conventional patch clamp method was used to assay the inhibitory activities of compounds 21, 37, 44, 61 against Kv1.3. The principle and method for the conventional patch clamp method can be found in Grissmer et al. [Grissmer et al. Molecular Pharmacology 1994, 45:1227-1234].
Inhibitory activity of the compounds against Kv1.3 was assessed using a CHO-K1 recombinant cell line stably expressing human Kv1.3 (Charles River, California). The cells were cultured in an F-12K culture medium containing 5% calf serum (Invitrogen, Carlsbad.ca) in an incubator at 37° C. and under air humidity with 6% CO2.
as §1, §2
Each of the compounds was perfused by a gravity-driven perfusion system. At least two cells were tested for each of the concentrations of a compound. After the current was stable, the blocking effect of the compounds was calculated by comparing the change in the current before and after administration of the compounds. 1000 μM 4-AP was used as a positive control.
as §3
The cells were clamped at −80 mV and then depolarized to 0 mV with square waves lasting for 2 seconds to obtain a Kv1.3 current. This process was repeated every 20 seconds. The maximum current elicited by the square waves was detected. After the maximum current became stable, the test compounds were perfused. After the reaction was stable, the blocking strength was calculated.
Data was collected and analyzed using pCLAMP 10 (Molecular Devices, Union City, CA). A stable current meant a current which varies within a limited range over time. […]

Assay [3] deals with rat model of allergic contact dermatitis (ACD). Description: Rat model of allergic contact dermatitis (ACD model) induced by DNCB. In kind it is in vivo. Conditions: SD female rats, 5%, 1.5%, 0.5% applied to right ear by wiping three times a day, 4 days, FIG. 1. The protocol:
IV. Effects of Compound 37 on a Rat Model of Allergic Contact Dermatitis (ACD Model) 1. Laboratory Animal
SPF SD female rats with body weight of 130-150 g were used.
Dexamethasone (DXMS) sodium phosphate injection, 5 mg/ml/injection (Shiyao Yinhu Pharmaceutical Co., Ltd.); 1-chloro-2,4-dinitrobenzene (DNCB) (TCI Shanghai); vehicle and negative control: acetone/DMSO 9:1 (Vehicle, Model group).
3.1 The animals were randomly divided into 6 groups based on body weight with 10 animals per group: blank control group, model control group, positive control group (dexamethasone sodium phosphate injection 5 mg/mL), 5% Compound 37 group, 1.5% Compound 37 group and 0.5% Compound 37 group.
3.2 Modeling and administration: a rat model of allergic contact dermatitis (ACD) was established by sensitizing and stimulating the rat's skin with a DNCB solution in acetone and DMSO (acetone-DMSO 9:1). The rats were normally fed in a SPF barrier system for 1 week. Long hair was removed with a razor and short hair was removed with depilatory cream within an area of about 2 cm×2 cm from abdomen of the rats one day before the experiment. […]
3.3 Measurement of difference between ear thicknesses: before the stimulation and after the final administration, the thickness of central parts of left and right ears of the rats in each of the groups was measured with electronic digital calipers. […]

Sequence of human Kv1.5 (P22460 whole entry): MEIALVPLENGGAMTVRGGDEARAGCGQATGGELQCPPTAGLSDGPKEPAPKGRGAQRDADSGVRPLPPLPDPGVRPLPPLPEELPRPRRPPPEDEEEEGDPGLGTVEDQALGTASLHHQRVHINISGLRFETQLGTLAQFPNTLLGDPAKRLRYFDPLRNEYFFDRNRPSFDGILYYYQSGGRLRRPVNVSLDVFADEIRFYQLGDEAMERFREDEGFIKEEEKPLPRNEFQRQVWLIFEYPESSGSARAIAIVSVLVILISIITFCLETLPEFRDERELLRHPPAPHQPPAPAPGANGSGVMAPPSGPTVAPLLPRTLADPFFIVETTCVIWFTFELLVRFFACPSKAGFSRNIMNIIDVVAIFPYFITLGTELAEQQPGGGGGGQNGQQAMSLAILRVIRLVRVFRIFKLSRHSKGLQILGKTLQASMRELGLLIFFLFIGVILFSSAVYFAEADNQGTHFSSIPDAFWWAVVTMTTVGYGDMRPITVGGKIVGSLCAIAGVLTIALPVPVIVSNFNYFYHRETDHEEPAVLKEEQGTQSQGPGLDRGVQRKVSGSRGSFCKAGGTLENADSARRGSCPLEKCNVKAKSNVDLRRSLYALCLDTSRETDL

For `CC(C)CS(=O)(=O)N(Cc1ccc(F)cc1)c1ccc(N2CCN(C(=O)N(C)C)CC2)c(C#N)c1` [Compound 37, 4-(2-cyano-4-((N-(4-fluorobenzyl)-2-methylpropyl)sulfonamido)phenyl)-N,N-dimethylpiperazin-1-formamide], the results for the IC50 in assay [1] and in assay [2] were 3650 nM and 108 nM, respectively. Moreover, in assay [3], the “ear inflammation (difference between ear thicknesses)” value is on record as “significantly reduced ear inflammation”.

Usually IC50 stands for the midpoint of a concentration-inhibition curve. A high value points to weaker potency.

The values above are taken from patent US11993576B2, “N-benzyl-N-arylsulfonamide derivative and preparation and use thereof” (Hangzhou Yirui Pharmaceutical Technology Co., Ltd, priority 2019, dated 2024).
